Laboratory results from the NIST ThermoML archive (doi:10.1016/j.jct.2007.11.008).
Numbers after ± are expanded uncertainties.

Test: molar enthalpy of vaporization or sublimation
Details: 298 K; Crystal; Static calorimetry

Row | SMILES | molar enthalpy [kcal/mol]
1 | CC(C)CN(CC(C)C)C(=S)NC(=O)c1cccs1 | 48.57 ± 0.263
2 | CCCCN(CCCC)C(=S)NC(=O)c1cccs1 [N-((dibutylamino)thioxomethyl)-2-thiophenecarboxamide] | 48.92 ± 0.263
